Tests used:
[1] = molecular target: T1, UT-B (Homo sapiens, UniProt Q13336); experiment: Stopped-flow light scattering, urea transport in human RBCs; format: cell-based; settings: for inhibition of urea transport, inhibitor added externally only (sidedness): inhibitor only in urea-containing solution at time of stopped-flow; for reversibility of inhibition after washing of RBCs: 10 min pre-incubation (0.1 μM ureainh-101, 0.4 μM ureainh-302), then washout
T1 construct: a red blood cell (i.e., erythrocyte), which endogenously expresses the urea transporter UT-B; endogenous in cells; host or cells: human red blood cells (whole venous blood, single donor)
T1 sequence (Q13336 1-389): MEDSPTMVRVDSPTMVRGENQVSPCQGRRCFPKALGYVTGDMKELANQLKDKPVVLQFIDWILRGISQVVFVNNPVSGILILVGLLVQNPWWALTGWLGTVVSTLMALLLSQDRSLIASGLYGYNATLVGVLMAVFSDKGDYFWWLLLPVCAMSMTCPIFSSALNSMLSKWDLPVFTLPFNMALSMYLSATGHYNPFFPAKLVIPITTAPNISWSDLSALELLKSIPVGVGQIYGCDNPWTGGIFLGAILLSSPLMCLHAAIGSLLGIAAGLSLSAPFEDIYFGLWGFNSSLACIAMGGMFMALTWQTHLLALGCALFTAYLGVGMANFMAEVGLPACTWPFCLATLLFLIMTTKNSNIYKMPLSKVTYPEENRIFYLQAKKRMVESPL
Protocol: RBC urea and water permeabilities were assayed by stopped-flow light scattering using a Hi-Tech Sf-51 instrument (Wiltshire, UK). […] After an initial osmotic shrinking phase, the kinetics of increasing cell volume caused by urea influx were measured as the time-course of 90° scattered light intensity at 530 nm, with increasing cell volume resulting in reduced scattered light intensity. As a positive control, 0.7 mM phloretin was added to the RBC suspension prior to stopped-flow experiments. Measurements of water permeability were carried out similarly, with sucrose (cell-impermeant) used instead of urea to establish a 250-mM osmotic gradient. As a positive control, HgCl2 (0.3 mM) was added to the RBC suspension prior to stopped-flow measurements. Osmotic water permeability coefficients (Pf) were computed from light scattering data as described (van Hoek et al., J Biol Chem. 267:18267-69 (1992)).
After repeating the 96-well plate RBC lysis assay to confirm compound activity (see Example 2), bona fide urea transport inhibition was determined by stopped-flow light scattering from the kinetics of urea influx (RBC swelling) in response to an inwardly directed urea gradient. Rapid mixing of an RBC suspension with a hyperosmolar solution containing excess 250 mM urea produced rapid cell shrinking due to osmotic water efflux, followed by cell swelling as urea (and water) influx occurred.
To determine EC50 values for urea transport inhibition directly, RBC urea transport was measured by stopped-flow light scattering using a non-saturating concentration of extracellular urea (to avoid possible competition effects). EC50 for inhibition of RBC urea transport was determined independently by comparing stopped-flow light scattering curves to a model of cell shrinking-swelling. […]
The two coupled differential equations describing water efflux and solute influx in response to externally added urea or methylurea were numerically integrated using the forward Euler method (Δt=0.01 s) to reproduce the biphasic changes in cell volume observed experimentally. […] For each time step, a new cell volume (normalized to the initial size; V(i+1)/V(0)) and a new cell permeant concentration (U(i+1)) were calculated from V(i+1)/V(0)=V(i)/V(0)−Δt·Pf·(S/V(0))·vw·[Ie(1−V(i)/V(0))+(Ue−Uc(i))] and Uc(i+1)=Uc(i)/V(0)−Δt·Us·(S/V(0))·vw·(Ue−Uc(i)). […] The product of Pf and the surface area-to-volume ratio (S/V(0)) was determined to be 3.4×10^2 s^−1 and 8.5×10^2 s^−1 for human and mouse erythrocytes, respectively, from water permeability measurements. […]

[2] = molecular target: T2, mouse UT-B (Mus musculus, UniProt Q8VHL0); experiment: Stopped-flow light scattering, N-methylurea transport in mouse RBCs; format: cell-based
T2 construct: the indicator cells are red blood cells that endogenously express the UT-B urea transporter; endogenous in cells; host or cells: red blood cells of wild-type CD1 mice
T2 sequence (Q8VHL0 1-384): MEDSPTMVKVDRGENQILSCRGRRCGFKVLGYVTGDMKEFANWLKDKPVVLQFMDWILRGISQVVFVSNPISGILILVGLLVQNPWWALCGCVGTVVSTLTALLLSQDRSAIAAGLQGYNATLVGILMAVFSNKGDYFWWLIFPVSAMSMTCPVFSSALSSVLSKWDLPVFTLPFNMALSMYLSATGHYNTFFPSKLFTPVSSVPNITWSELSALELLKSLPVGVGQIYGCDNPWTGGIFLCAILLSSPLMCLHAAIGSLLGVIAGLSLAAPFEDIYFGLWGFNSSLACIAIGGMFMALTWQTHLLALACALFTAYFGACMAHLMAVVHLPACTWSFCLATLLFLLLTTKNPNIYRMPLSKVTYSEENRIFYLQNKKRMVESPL
Protocol: As a positive control, 0.7 mM phloretin was added to the RBC suspension prior to stopped-flow experiments. Measurements of water permeability were carried out similarly, with sucrose (cell-impermeant) used instead of urea to establish a 250-mM osmotic gradient. As a positive control, HgCl2 (0.3 mM) was added to the RBC suspension prior to stopped-flow measurements. Osmotic water permeability coefficients (Pf) were computed from light scattering data as described (van Hoek et al., J Biol Chem. 267:18267-69 (1992)).
For stopped-flow experiments, a 100-mM gradient of urea (for human RBCs) or N-methylurea (for mouse RBCs) was used to minimize competition effects (apparent urea and N-methylurea affinities at 23° C. are approximately 200 and approximately 100 mM, respectively) (Mayrand et al., J Gen Physiol. 81:221-37 (1983)). N-methylurea, with greater than 2-fold slower RBC permeability than urea, was used in mouse studies to better resolve overlapping water and urea transport kinetics. Dose-response data were also collected for human RBCs using a high concentration of 1 M urea to distinguish between competitive vs. non-competitive inhibitor binding.
For these studies using mouse RBCs, methylurea was used as the transported solute instead of urea because its transport is slower, allowing better estimation of EC50 values.

Row | Compound | inhibition of urea transport, inhibitor added externally only (sidedness) ([1]; 0.2 μM) | reversibility of inhibition after washing of RBCs [1] | inhibitory potency against mouse UT-B [2] | inhibition of urea transport, inhibitor added externally only (sidedness) ([1]; 0.1 μM)
1 | Cc1ccc(Nc2nnc(-c3ccc(C(N)=O)cc3)c3ccccc23)cc1 [ureainh-302] | had a sizable effect | fully reversible inhibition | good inhibitory potencies | 
2 | NC(=O)CSc1oc(-c2ccccc2)nc1S(=O)(=O)c1ccc(Br)cc1 [ureainh-101] |  | fully reversible inhibition | good inhibitory potencies | did not inhibit urea transport

Reference: patent US20110053995A1, “BENZENESULFONANILIDE COMPOUND INHIBITORS OF UREA TRANSPORTERS” (THE REGENTS OF THE UNIVERSITY OF CALIFORNIA, priority 2006, published 2011)
